Test results taken from US20130171163A1, “Inhibition of LAR Phosphatase to Enhance Therapeutic Angiogenesis” (priority 2010, published 2013).

Tests used:
[1] = system: Akt, eNOS and ERK1/2; test: IGF-1-induced phosphorylation of Akt, eNOS and ERK1/2 in HUVECs (Western); assay type: cell-based, human; conditions: 100 ng/mL IGF-1, AdLAR at 2.5 MOI
Experimental: (§1) Human umbilical vein endothelial cells (HUVECs) were purchased from Cambrex (San Diego, Calif.) and were maintained in medium 199 (Mediatech, Inc, Herndon, Va.) containing 90 μg/ml heparin, 30 μg/ml endothelial cell growth supplements (BD Biosciences, Bedford, Mass.), 20% FBS, 50 μg/mL gentamicin, and 50 μg/mL amphotericin. Cultures were maintained at 37° C. in a humidified incubator (95% air, 5% CO2). HUVECs, grown to 80% confluence, were growth arrested by overnight incubation in medium 199 supplemented with 0.1% serum.
(§2) Preparation of cell lysates, immunoprecipitation and immunoblotting were performed as described (Reinmuth et al., Clin. Cancer Res. 8:3259 (2002)).
(§3) Adenoviral infection of nearly confluent HUVECs was performed with indicated multiplicity of infection in medium 199 containing 2% FBS. After 16 h incubation, the cells were quiesced overnight in medium 199 containing 0.1% FBS. Then HUVECs were treated with the indicated agonists in serum-free medium 199.
(§4) The LAR siRNA (sc-35793, containing three siRNAs (SEQ ID NOS:1-3)) and a scrambled, non-silencing siRNA (sc-36869) were obtained from Santa Cruz Biotechnology. […] HUVECs were treated with the indicated agonists in serum-free medium 199 and LAR expression was assessed by Western analysis.

[2] = system: aortic rings from wild-type and LAR−/− mice; test: Ex vivo angiogenesis assay (aortic ring sprouting); design: species or system mouse
Experimental: The angiogenesis assay was performed as described previously (Huang et al., J. Biol. Chem. 277:10760 (2002)) with some modifications. Thoracic aortas were excised from 8-12-week-old wild-type and LAR knockout male mice (DBA background) and immediately placed into cold medium 199 containing 10% FBS. Clotted blood inside the aortas was flushed with media, and the periadventitial fibroadipose tissue was removed. Aortas were then cut into cross-sectional rings of ˜1-1.5 mm in length. Rings were placed into 60-mm dishes containing 0.4 ml of cold growth factor-reduced Matrigel and then incubated at 37° C. until the Matrigel was polymerized. The aortic rings embedded in the Matrigel were overlaid with 0.5 ml of serum-free endothelial cell growth medium with or without the growth factors. The rings were maintained at 37° C. for up to 10 days with medium changes every 2 days. Vascular sprouting from the rings was examined daily under a Leica microscope (10× magnification), and digital images were obtained. Quantitative analysis of endothelial sprouting was performed using images from day 10, and sprout length was quantified using NIH Image J. The distance from the aortic ring body to the end of the vascular sprouts was measured at three distinct points per ring.

[3] = biological target: T1, IGF-1Rβ (Homo sapiens, UniProt P08069); test: IGF-1-induced IGF-1Rβ autophosphorylation in HUVECs (immunoprecipitation/Western); assay type: cell-based
T1 construct: endogenous in cells; host or cells: HUVEC (Cambrex)
Experimental: as §1, §2, §3, §4

[4] = system: wild-type and LAR−/− mice; test: In vivo angiogenesis assay (Matrigel plug); design: species or system mouse; conditions: in the presence of PPP
From the text: The Matrigel plug assay was used to assess in vivo angiogenesis. […] Mice were sacrificed after 10 days and the plugs were carefully dissected from the mice. The plugs were weighed, analyzed histologically or for hemoglobin content using Drabkin hemoglobin assay kit (Sigma Chemical Co., St. Louis, Mo.). Hemoglobin levels in the Matrigel plugs correlate well with blood vessel growth (Volin et al., Am. J. Pathol. 159:1521 (2001)). The Matrigel plugs were homogenized on ice and centrifuged. Fifty μl of the supernatant were mixed with 950 μl Drabkin's reagent and the reaction was allowed to develop at room temperature for 30 min. Absorbance was read at 540 nm and hemoglobin concentration was determined by comparison to a standard curve generated using known concentrations of hemoglobin. For histological analysis, Matrigel plugs were formalin-fixed, paraffin-embedded, cut into 5 μm sections, and Massons trichrome-stained. In brief, sections were hydrated in distilled water, incubated in Bouin's fixative for 3 h to overnight, and then washed in running tap water until yellow color disappeared. […] Image J was used to quantify the number of vessel-like structures in each field. Total number of microvessels containing red blood cells and number of capillaries in a high power field (20× magnifications) were counted. […]

[5] = system: HUVECs; test: Matrigel morphogenesis assay (endothelial tube/cord formation); assay type: cell-based, human; conditions: 1 μM PPP
Experimental: Growth factor-reduced Matrigel was thawed at 4° C. on ice and 300 μl/well were added to a 24-well plate prechilled at −20° C. using a cold pipette. Matrigel was allowed to polymerize for 30 min at 37° C. HUVECs were either left uninfected or were infected with AdLAR or Adβ-gal. In a separate set of experiments, HUVECs were transfected with LAR siRNA or control siRNA as described above. […] In vitro tube formation was assessed after 5 h incubation. Cell cultures were observed under a phase contrast microscope and photographed in five different random fields (10× magnification). The mean tube length per field was quantified using NIH Image J.

T1 sequence (P08069 31-1367): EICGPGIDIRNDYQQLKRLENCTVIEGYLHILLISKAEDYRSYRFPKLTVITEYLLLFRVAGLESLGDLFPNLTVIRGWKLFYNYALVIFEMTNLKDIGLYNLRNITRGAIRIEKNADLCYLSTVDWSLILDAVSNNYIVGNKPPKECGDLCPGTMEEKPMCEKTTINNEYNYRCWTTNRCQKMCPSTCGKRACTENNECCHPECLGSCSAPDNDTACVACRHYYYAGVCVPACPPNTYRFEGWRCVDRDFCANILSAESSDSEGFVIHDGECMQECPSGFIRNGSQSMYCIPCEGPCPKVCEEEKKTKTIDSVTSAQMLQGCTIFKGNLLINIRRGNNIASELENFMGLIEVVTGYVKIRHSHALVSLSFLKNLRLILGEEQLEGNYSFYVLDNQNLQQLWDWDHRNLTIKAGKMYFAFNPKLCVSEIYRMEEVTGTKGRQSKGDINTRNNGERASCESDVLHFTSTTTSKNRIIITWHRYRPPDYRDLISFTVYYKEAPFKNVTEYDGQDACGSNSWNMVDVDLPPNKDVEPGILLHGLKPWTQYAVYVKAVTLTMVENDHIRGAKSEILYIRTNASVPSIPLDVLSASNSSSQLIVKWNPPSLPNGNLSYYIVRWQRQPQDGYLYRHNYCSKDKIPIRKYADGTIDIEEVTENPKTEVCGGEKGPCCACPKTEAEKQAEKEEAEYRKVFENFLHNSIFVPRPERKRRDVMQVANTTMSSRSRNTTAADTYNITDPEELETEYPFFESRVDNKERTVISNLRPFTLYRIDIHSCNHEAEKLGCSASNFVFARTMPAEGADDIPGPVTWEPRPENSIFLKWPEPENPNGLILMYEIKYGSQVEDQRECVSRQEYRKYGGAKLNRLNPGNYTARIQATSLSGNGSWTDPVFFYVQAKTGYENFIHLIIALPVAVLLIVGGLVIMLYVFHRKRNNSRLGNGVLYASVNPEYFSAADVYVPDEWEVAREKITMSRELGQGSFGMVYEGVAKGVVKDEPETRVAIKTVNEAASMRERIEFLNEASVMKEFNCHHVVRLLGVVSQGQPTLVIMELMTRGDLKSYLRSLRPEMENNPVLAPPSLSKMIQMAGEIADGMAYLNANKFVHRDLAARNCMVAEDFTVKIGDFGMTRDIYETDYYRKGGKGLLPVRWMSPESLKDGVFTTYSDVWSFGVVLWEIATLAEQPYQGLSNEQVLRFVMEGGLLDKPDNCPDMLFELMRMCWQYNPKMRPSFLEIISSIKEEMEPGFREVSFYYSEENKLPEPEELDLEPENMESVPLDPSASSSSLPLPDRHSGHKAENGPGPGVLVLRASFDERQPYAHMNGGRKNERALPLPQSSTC

## IGF-1: Recombinant human IGF-1 purchased from R&D Systems
[1]
  IGF-1-induced phosphorylation of Akt, eNOS and ERK1/2: increased
[2]; wild-type and LAR−/− mice, IGF-1 treatment, day 10
  Mean length of newly sprouted vessels from aortic rings: significantly enhanced

## COc1cc([C@@H]2c3cc4c(cc3[C@H](O)[C@H]3COC(=O)[C@@H]23)OCO4)cc(OC)c1OC [PPP, picropodophyllin]
[3]; 1 μM PPP
  IGF-1Rβ autophosphorylation in HUVECs treated with IGF-1: significant inhibition
[3]; PPP pretreatment 1 h, 100 ng/mL IGF-1 10 min
  IGF-1Rβ autophosphorylation in HUVECs treated with IGF-1, dose dependence: dose-dependent inhibition
[4]; LAR−/− mice
  Number of microvessels in IGF-1 embedded Matrigel plugs: significantly decreased
[4]; 10 days, significant in LAR−/− mice (P=0.01)
  Hemoglobin content of IGF-1 embedded Matrigel plugs: decreased in both wild-type and LAR^−/− mice
[5]
  IGF-1-induced cord formation in scrambled siRNA and LAR siRNA transfected HUVECs: abrogated
[2]; 1 μM PPP, 10 days in Matrigel
  Mean length of sprouts from IGF-1 treated wild-type and LAR−/− aortic rings: significantly inhibited
